Test results as given in publication PMC4604124, “In Vitro Characterization of the Pharmacological Properties of the Anti-Cancer Chelator, Bp4eT, and Its Phase I Metabolites” (PLoS ONE, 2015).
Values joined by “and” are separate entries in the source; they are usually repeats but may differ in a detail not shown here. Equal entries are not always repeated. Where two headings read alike, the source gives them in different places.

Legend:
caspases 3/7 = assay: Caspase activity, luminescent kit, caspases 3/7; assay type: cell-based, human; conditions: for kaspáza (3) a 7, průměry (means of raw signal): mean of 4 experiments; for kaspáza (3) a 7, raw signal / kaspáza (3) a 7, signal / viabilita: individual experiments by date
Method: To assess the effect of the compounds on caspase activity, MCF-7 cells were incubated with 100 nM Bp4eT or its metabolites for 3, 24 or 72 h/37°C in 96-well plates, as described above. The cells were then lysed by adding 100 μL of cold lysis buffer (100 mM HEPES, 10 mM CHAPS, 10 mM D-L-dithiothreitol, pH 7.4) to 100 μL of medium in each well. Lysates were immediately frozen at -80°C. Thawed lysates were used to assess caspase activity using luminescent kits for caspases 3/7, 8 and 9 (Promega, Madison, WI, USA). The luminescence was measured using the Tecan Infinite 200M plate reader. Caspase activity in the experimental groups was corrected according to the cellular viability of each group and expressed as a percentage of activity of the untreated control (100%).

[1] = test system: HL-60 human promyelocytic leukemia cells; assay: MTT cytotoxicity assay, HL-60 cells; assay type: cell-based; conditions: for IC50: MTT
Method: (§1) For cytotoxicity experiments, cancer cells were seeded at a density of 5,000 (MCF-7), 10,000 (HL-60) or 2,000 cells/well (HCT116 and A549) in 96-well plates (TPP) for 24 h/37°C prior to the addition of examined agents. The non-cancerous cells, 3T3 and H9c2 cells, were cultured for 24 h/37°C in 96-well plates at a density of 10,000 cells/well, the medium was then changed to serum- and pyruvate-free DMEM (Sigma-Aldrich) and incubated with the cells for another 24 h/37°C. The cytotoxic effects of Bp4eT and its metabolites were studied at different concentrations after a 72 h/37°C incubation. In order to aid the dissolution of the lipophilic ligands, 0.1% dimethyl sulfoxide (v/v) (DMSO; Sigma-Aldrich) was present in the culture medium of all groups. At this concentration, DMSO had no effect on cellular proliferation or viability.
(§2) The viability of cells were determined using an MTT assay (Sigma-Aldrich) according to previously established methods. The optical density of soluble MTT was measured at λ = 570 nm, subtracting the λ = 690 nm background using a Tecan Infinite 200M plate reader (Tecan Group, Männedorf, Switzerland). The viability or proliferation of experimental groups was expressed as a percentage of the untreated controls (100%).
(§3) SigmaStat for Windows 3.5 (Systat Software, San Jose, CA, USA) statistical software package was utilized to analyze results. The data are expressed as the mean ± SD of a given number of experiments. Statistical significance was determined using a one-way ANOVA with a Bonferroni post-hoc test or Student’s t-test. The results were considered to be statistically significant when p < 0.05. The IC50 values were calculated using CalcuSyn 2.0 software (Biosoft, Cambridge, UK). Cell cycle analysis was evaluated using MultiCycle AV Software (Phoenix Flow Systems, San Diego, CA, USA).

[2] = test system: HCT116 human colorectal carcinoma cells; assay: MTT cytotoxicity assay, HCT116 cells; assay type: cell-based; conditions: for MTT, relative to control (0 = 100): HCT116, 2 000 b/j
Method: as §1, §2, §3

- Activation of caspases 7, 8 and 9 (caspases 3/7; 100 nM, 3 h, MCF-7, statement covers caspases 7, 8 and 9): did not activate any of the caspases
Compound: CCNC(=S)NN=C(c1ccccc1)c1ccccn1 [Bp4eT, 2-benzoylpyridine 4-ethyl-3-thiosemicarbazone]
- Caspase 7 activity, % of the control (caspases 3/7; 100 nM, 24 h, MCF-7, corrected for viability): 203%
- Caspase 7 activity, % of control (caspases 3/7; 100 nM, 72 h, MCF-7, corrected for viability): 318%
- kaspáza (3) a 7, % kontroly (caspases 3/7; 3 hodiny (3 h), % of control): 96.83%
- kaspáza (3) a 7, průměry (means of raw signal) (caspases 3/7; 3 hodiny (3 h)): 1616.38
- kaspáza (3) a 7, raw signal (caspases 3/7; 3 hodiny): 1828 and 1581 and 1679 and 1377.5
- kaspáza (3) a 7, raw signal, průměry (caspases 3/7; 3 hodiny, mean): 1616.38
- kaspáza (3) a 7, % kontroly (caspases 3/7; 3 hodiny, mean, normalised to viability): 101.92 % kontroly
- kaspáza (3) a 7, signal / viabilita (caspases 3/7; 3 hodiny, normalised to viability): 18.975 and 16.4111 and 17.4284 and 14.2987
- kaspáza (3) a 7, signal / viabilita, průměry (caspases 3/7; 3 hodiny, normalised to viability, mean): 16.7783
- kaspáza (3) a 7, % kontroly (caspases 3/7; 24 hodin (24 h), % of control): 107.61%
- kaspáza (3) a 7, průměry (means of raw signal) (caspases 3/7; 24 hodin (24 h)): 2465.5
- kaspáza (3) a 7, raw signal (caspases 3/7; 24 hodin): 2823.5 and 2154.5 and 2683 and 2201
- kaspáza (3) a 7, raw signal, průměry (caspases 3/7; 24 hodin, mean): 2465.5
- kaspáza (3) a 7, % kontroly (caspases 3/7; 24 hodin, mean, normalised to viability): 203.48 % kontroly
- kaspáza (3) a 7, signal / viabilita (caspases 3/7; 24 hodin, normalised to viability): 53.4249 and 40.7664 and 50.7664 and 41.6462
- kaspáza (3) a 7, signal / viabilita, průměry (caspases 3/7; 24 hodin, normalised to viability, mean): 46.651
- kaspáza (3) a 7, % kontroly (caspases 3/7; 72 hodin (72 h), % of control): 86.15%
- kaspáza (3) a 7, průměry (means of raw signal) (caspases 3/7; 72 hodin (72 h)): 6404.25
- kaspáza (3) a 7, raw signal (caspases 3/7; 72 hodin): 10190.5 and 6963 and 3947 and 4516.5
- kaspáza (3) a 7, raw signal, průměry (caspases 3/7; 72 hodin, mean): 6404.25
- kaspáza (3) a 7, % kontroly (caspases 3/7; 72 hodin, mean, normalised to viability): 318.49 % kontroly
- kaspáza (3) a 7, signal / viabilita (caspases 3/7; 72 hodin, normalised to viability): 376.172 and 257.032 and 145.7 and 166.722
- kaspáza (3) a 7, signal / viabilita, průměry (caspases 3/7; 72 hodin, normalised to viability, mean): 236.406
- Therapeutic index, IC50 non-cancerous cells / IC50 neoplastic cells ([1]; 3T3/HL-60): 436.3
- Therapeutic index, IC50 non-cancerous cells / IC50 neoplastic cells ([1]; H9c2/HL-60): 174.7
- MTT, relative to control (0 = 100) ([1]; HL-60, 10 000 b/j, 0.1 nM, průměr (mean)): 98.01
- MTT, relative to control (0 = 100) ([1]; HL-60, 10 000 b/j, 0.1 nM, single experiment (date)): 96.1425 and 103.96 and 95.2755 and 95.4167 and 99.2528
- MTT, relative to control (0 = 100) ([1]; HL-60, 10 000 b/j, 0.3 nM, průměr (mean)): 96.66
- MTT, relative to control (0 = 100) ([1]; HL-60, 10 000 b/j, 0.3 nM, single experiment (date)): 99.4278 and 92.0645 and 96.8892 and 98.2749
- MTT, relative to control (0 = 100) ([1]; HL-60, 10 000 b/j, 1 nM, průměr (mean)): 97.15
- MTT, relative to control (0 = 100) ([1]; HL-60, 10 000 b/j, 1 nM, single experiment (date)): 95.2755 and 96.4389 and 98.8804 and 97.9877
- MTT, relative to control (0 = 100) ([1]; HL-60, 10 000 b/j, 3 nM, průměr (mean)): 62.98
- MTT, relative to control (0 = 100) ([1]; HL-60, 10 000 b/j, 3 nM, single experiment (date)): 50.186 and 52.1752 and 67.6874 and 81.8744
- MTT, relative to control (0 = 100) ([1]; HL-60, 10 000 b/j, 10 nM, průměr (mean)): 3.98
- MTT, relative to control (0 = 100) ([1]; HL-60, 10 000 b/j, 30 nM, průměr (mean)): 1.50
- MTT, relative to control (0 = 100) ([1]; HL-60, 10 000 b/j, 100 nM, průměr (mean)): 1.69
- IC50 ([1]; HL-60, 10 000 b/j, single experiment (date), read-out: IC50 měřené): 2.84 nM and 3.65 nM and 4.08 nM
- IC50 ([1]; Homo sapiens, HL-60, 72 h, HL-60, 72 h/37°C, mean ± SD, n ≥ 4, read-out: IC50): 3 ± 1 nM
- IC50 ([1]; Homo sapiens, HL-60, HL-60, 10 000 b/j, průměr (mean), read-out: IC50 měřené): 3.48 nM
- IC50 ([1]; Homo sapiens, HL-60, HL-60, 10 000 b/j, single experiment (date), read-out: IC50 měřené): 3.35 nM
- Therapeutic index, IC50 non-cancerous cells / IC50 neoplastic cells ([2]; 3T3/HCT116): 163.6
- Therapeutic index, IC50 non-cancerous cells / IC50 neoplastic cells ([2]; H9c2/HCT116): 65.5
- MTT, relative to control (0 = 100) ([2]; 0.1 nM, průměr (mean)): 92.91
- MTT, relative to control (0 = 100) ([2]; 0.1 nM, single experiment (date)): 94.5188 and 92.721 and 92.454 and 82.0932 and 102.751
- MTT, relative to control (0 = 100) ([2]; 0.3 nM, průměr (mean)): 88.66
- MTT, relative to control (0 = 100) ([2]; 0.3 nM, single experiment (date)): 92.7269 and 86.3547 and 90.8174 and 78.0265 and 95.3944
- MTT, relative to control (0 = 100) ([2]; 1 nM, průměr (mean)): 85.74
- MTT, relative to control (0 = 100) ([2]; 1 nM, single experiment (date)): 90.3279 and 80.727 and 89.5958 and 78.1202 and 89.9198
- MTT, relative to control (0 = 100) ([2]; 3 nM, průměr (mean)): 82.64
- MTT, relative to control (0 = 100) ([2]; 3 nM, single experiment (date)): 85.5357 and 81.1307 and 88.4648 and 76.4907 and 81.5651
